Values quoted from earlier work in patent US20230243814A1, “CHEMICAL CLAS[…] AND METHOD FOR PLANTS” (priority 2020, published 2023).
Read-outs that look alike come from different tables or passages of the source.

Tests used:
[1] = relative magnitude of the activity in words
[2] = relative magnitude of the activity in words; remark: listed apart in the source
[3] = molecular target: AChE (acetylcholinesterase) (Homo sapiens, UniProt P22303); conditions: relative magnitude of the activity in words
[4] = relative magnitude of the activity in words; remark: listed apart in the source
[5] = relative magnitude of the activity in words; remark: listed apart in the source
[6] = relative magnitude of the activity in words; remark: listed apart in the source
[7] = relative magnitude of the activity in words; remark: listed apart in the source
GABA A = conditions: relative magnitude of the activity in words
[8] = test system: brain wave (EEG) activity; conditions: for beta wave boost: creativity / alpha wave boost: focus: relative magnitude in words; for alpha wave activity (EEG) / beta wave activity (EEG) / beta and other absolute wave activity (EEG): inhalation; on alpha wave activity (EEG): test concentration or dose not given here; on beta and other absolute wave activity (EEG): test concentration or dose not given here; on beta wave activity (EEG): test concentration or dose not given here
[9] = relative magnitude of the activity in words; remark: listed apart in the source

AChE (acetylcholinesterase), sequence (P22303 32-614, species assumed): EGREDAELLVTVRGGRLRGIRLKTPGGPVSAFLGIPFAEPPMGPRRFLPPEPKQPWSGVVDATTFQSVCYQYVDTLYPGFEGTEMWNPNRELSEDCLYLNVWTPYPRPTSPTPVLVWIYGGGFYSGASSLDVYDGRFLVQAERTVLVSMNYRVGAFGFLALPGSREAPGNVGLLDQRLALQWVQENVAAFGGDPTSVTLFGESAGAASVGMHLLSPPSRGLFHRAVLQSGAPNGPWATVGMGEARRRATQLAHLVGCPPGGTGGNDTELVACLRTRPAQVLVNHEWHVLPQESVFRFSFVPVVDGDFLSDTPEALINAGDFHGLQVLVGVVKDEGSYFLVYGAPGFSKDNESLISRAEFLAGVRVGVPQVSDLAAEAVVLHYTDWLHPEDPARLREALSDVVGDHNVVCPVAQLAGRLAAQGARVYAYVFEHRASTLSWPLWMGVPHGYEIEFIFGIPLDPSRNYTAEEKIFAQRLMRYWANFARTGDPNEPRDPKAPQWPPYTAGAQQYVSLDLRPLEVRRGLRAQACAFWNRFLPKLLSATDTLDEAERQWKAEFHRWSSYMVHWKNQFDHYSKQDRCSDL

Compound | analgesic pain relief [1] | sedative [2] | AChEl [3] | antinociceptive pain blocker [4] | also measured
C=C1C2CCC(C2)C1(C)C (centres unmarked) [camphene] | no notable | moderate | no notable | no notable | –
C=CC(=C)CCC=C(C)C [beta myrcene] | moderate | weak | no notable | no notable | muscle relaxant [5]: moderate
CC(C)=CCC[C@](C)(O)[C@@H]1CC=C(C)CC1 [a bisabolol] | no notable | no notable | no notable | very strong | muscle relaxant [5]: very strong
C=CCc1ccc(O)c(OC)c1 [eugenol] | – | – | – | very strong | –
C=CC(C)(O)CCC=C(C)C (centres unmarked) [linalool] | moderate | very strong | no notable | very strong | anti depressant [6]: very strong; anti anxiety [7]: very strong; GABA A Modulation (GABA A): very strong
C=C1CCC2CC1C2(C)C (stereo not drawn) [beta pinene] | moderate | moderate | no notable | no notable | anti depressant [6]: moderate; beta wave boost: creativity ([8]; women only): very strong
CC1=CCC(=C(C)C)CC1 [terpinolene] | no notable | weak | no notable | no notable | muscle relaxant [5]: moderate; alpha wave activity (EEG) ([8]; all subjects): increase relative fast alpha wave activity; beta wave activity (EEG) ([8]; all subjects): decrease mid beta wave activity; alpha wave activity (EEG) ([8]; men): no increase in alpha wave activity; beta and other absolute wave activity (EEG) ([8]; men): decrease in relative mid beta wave activity; alpha wave activity (EEG) ([8]; women): increased absolute fast alpha wave activity; alpha wave boost: focus ([8]; women only): very strong
C=C/C(C)=C/C/C=C(\C)CCC=C(C)C [alpha farnesene] | no notable | – | – | no notable | –
CC1=CCC2CC1C2(C)C (stereo not drawn) [alpha pinene] | weak | agonistic | very strong | no notable | motor stimulation (EPM) [9]: moderate; anti depressant [6]: moderate; anti anxiety [7]: moderate; alpha wave boost: focus ([8]; no gender qualifier): moderate; beta wave boost: creativity ([8]; women only): very strong; GABA A Modulation (GABA A): moderate
CC12CCC(C1)C(C)(C)C2O (centres unmarked) [fenchol] | no notable | moderate | no notable | no notable | –
CC12CCC(CC1)C(C)(C)O2 [eucalyptol] | – | – | very strong | no notable | –
CC1=CCC2C(C1)C2(C)C (centres unmarked) [3 carene] | no notable | – | very strong | no notable | –
C=CC(C)(O)CCC=C(C)CCC=C(C)C (centres unmarked) [nerolidol] | moderate | very strong | no notable | very strong | anti anxiety [7]: very strong
C[C@H]1CC[C@@H](C(C)(C)O)CC2=C1CC[C@@H]2C [guiaol] | – | no notable | no notable | no notable | –
(+) beta pinene | – | – | – | – | alpha wave activity (EEG) ([8]; men): no impact on alpha waves; beta and other absolute wave activity (EEG) ([8]; men): no significant changes in the absolute waves; alpha wave activity (EEG) ([8]; women): significantly increased; beta wave activity (EEG) ([8]; women): significantly increased
CC1=CC[C@H](C(C)C)C=C1 [alpha phellandrene] | moderate | no notable | no notable | very strong | anti depressant [6]: moderate
C=C/C(C)=C/CC=C(C)C [beta ocimene] | no notable | – | very strong | no notable | –
CC1=CC[C@@H](C(C)(C)O)CC1 [alpha terpineol] | very strong | moderate | no notable | very strong | muscle relaxant [5]: very strong
C=C(C)[C@H]1CC=C(C)CC1 [limonene] | moderate | – | agonistic | no notable | anti depressant [6]: moderate; beta wave boost: creativity ([8]; women only): very strong
C=C1CC/C=C(\C)CC[C@@H]2[C@@H]1CC2(C)C [beta caryophyllene] | moderate | no notable | no notable | no notable | anti depressant [6]: moderate; anti anxiety [7]: moderate
C/C1=C\CC/C(C)=C/CC(C)(C)/C=C/C1 [humulene] | no notable | no notable | no notable | no notable | –
C=C(C)C1CC=C(C)CC1 (single isomer, unassigned; (+)) [(+) limonene] | – | – | – | – | beta wave activity (EEG) ([8]; all subjects): increase relative high beta wave activity; alpha wave activity (EEG) ([8]; men): no increase in alpha wave activity; beta and other absolute wave activity (EEG) ([8]; men): relative high beta activity increase; alpha wave activity (EEG) ([8]; women): increased absolute fast alpha wave activity; beta wave activity (EEG) ([8]; women): decreased relative mid beta wave activity
C=CC(=C)CC/C=C(\C)CCC=C(C)C [beta farnesene] | no notable | – | – | no notable | –
CC1=CC=C(C(C)C)CC1 [alpha terpinene] | – | – | very strong | no notable | –
(+) alpha pinene | – | – | – | – | alpha wave activity (EEG) ([8]; men): no impact on alpha waves; beta and other absolute wave activity (EEG) ([8]; men): significant decreases in absolute waves such as theta, beta, low beta and high beta; alpha wave activity (EEG) ([8]; women): significantly (P<0.05) increased; beta wave activity (EEG) ([8]; women): absolute beta wave and absolute high beta wave activity significantly (P<0.05) increased
